In assay [1] the test system is naja naja (snake venom) phospholipase A2 (PLA2)-induced paw edema. In words: Phospholipase A2-Induced Paw Edema (PIPE). The class given is in vivo, male Wistar rats. Conditions: subplantar; for PIPE 0.1M: 0.1 M test compound injected with PLA2 (3 units/100 μl/paw), rat left hindpaw, two hours; for PIPE ED50: standards, rat hindpaw. How it is done:
Phospholipase A2 -Induced Paw Edema (PIPE)
The ability of compounds to reverse naja naja (snake venom) phospholipase A2 (PLA2)-induced paw edema in male Wistar rats (100-125 gm) was measured. PLA2 (3 units/100 μl dH2 O/paw) alone or with 0.1 M of the test compound was injected in the subplantar region of the rat left hindpaw. Immediately following injection and at two hours post administration, the paw was immersed in a mercury bath, and paw displacement was measured on a recorder via a transducer. The value was then converted to mm Hg. […] Giessler, A. J. et al., "Agents and Actions", Vol. 10, "Trends in Inflammation Research" (1981), p. 195.

In assay [2] the test system is mouse ear edema induced by topical application of arachidonic acid. In words: Arachidonic Acid-Induced Mouse Ear Edema (AAEE). The class given is in vivo, Female Swiss Webster mice. The conditions noted are these: 1 mg/ear topical, 30 min before arachidonic acid 4 mg/ear; relative to control. How it is done:
Arachidonic Acid-Induced Mouse Ear Edema (AAEE)
The purpose of this assay was to determine the ability of a topically applied compound to prevent mouse ear edema induced by topical application of arachidonic acid. Female Swiss Webster mice topically received vehicle or test compound (1.0 mg/ear) on both ears (10 μl on outer and inner ears). After 30 minutes, arachidonic acid is applied to the right ear of each mouse of each group in the amount of 4 mg/ear. Vehicle is applied to the left ear of each mouse of each group at a volume of 20 μl/ear. After an additional hour, the mice are sacrificed and a 4 mm plug is taken from each ear and weighed. The difference between the right and left ear plugs was determined for each animal. The antiinflammatory activity of the test compound is expressed as the mean percent change in the ear plug weight of the treated animals relative to the mean percent change in weights of control animals' ear. (Standard: Indomethacin--90% at 1 mg/ear). Young, J. M. et al., Invest. Dermatol., 80, (1983), pp. 48-52.

The test system of assay [3] is ear edema induced by topical application of TPA (phorbol 12-myristate acetate). The assay is described as follows: TPA-Induced Ear Edema (TPAEE). Conditions: 10 μg/ear topical; TPA 10 μg/ear; about 5 hours; relative to control. The class given is in vivo, Female Swiss Webster mice. How it is done:
TPA-Induced Ear Edema (TPAEE)
The purpose of this assay was to determine the ability of a topically applied compound to prevent ear edema induced by topical application of TPA (phorbol 12-myristate acetate). Female Swiss Webster mice topically received TPA (10 μg/ear) on the right ear and vehicle on the left ear. The test compound (10 μg/ear) was applied to both ears. After about 5 hours, the animals are sacrificed and a 4 mm diameter plug is taken from each ear and weighed. The difference between the right and left ear plug weights for each animal was determined. The antiinflammatory activity of the test compound is expressed as the mean percent change in ear plug weight of the treated animals compared to the mean percent change in the plug weight of the control animals. (Standard: Indomethacin:--86% at 1 mg/ear). Young, J. M. et al., J. Invest. Dermatol., 80 (1983), pp. 48-52.

Assay [4] deals with T1, 5-lipoxygenase (Rattus norvegicus, UniProt P12527).
T1 construct: cell-free 5-lipoxygenase enzyme obtained from rat basophilic leukemia (RBL-1) cells; endogenous in cells; host or cells: RBL-1 rat basophilic leukemia cells, cell-free supernatant of sonicated cells
T1 sequence (P12527 1-673): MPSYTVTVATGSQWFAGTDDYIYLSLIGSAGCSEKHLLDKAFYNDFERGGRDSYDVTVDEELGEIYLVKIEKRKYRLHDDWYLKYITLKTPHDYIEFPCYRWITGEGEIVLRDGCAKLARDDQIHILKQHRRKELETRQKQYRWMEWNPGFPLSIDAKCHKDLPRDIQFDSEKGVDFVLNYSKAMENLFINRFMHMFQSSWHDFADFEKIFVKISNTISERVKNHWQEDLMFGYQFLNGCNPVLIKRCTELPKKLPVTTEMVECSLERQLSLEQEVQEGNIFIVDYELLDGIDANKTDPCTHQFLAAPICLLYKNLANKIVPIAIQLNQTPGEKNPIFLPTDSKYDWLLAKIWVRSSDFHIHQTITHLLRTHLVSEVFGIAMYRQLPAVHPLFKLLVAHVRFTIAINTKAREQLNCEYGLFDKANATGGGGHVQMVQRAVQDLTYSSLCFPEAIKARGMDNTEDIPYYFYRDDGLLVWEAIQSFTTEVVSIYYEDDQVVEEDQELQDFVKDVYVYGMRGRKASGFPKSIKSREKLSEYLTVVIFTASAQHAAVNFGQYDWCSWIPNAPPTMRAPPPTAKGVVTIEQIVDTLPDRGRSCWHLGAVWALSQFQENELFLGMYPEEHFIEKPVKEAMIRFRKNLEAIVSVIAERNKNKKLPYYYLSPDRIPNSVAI
The assay is described as follows: In Vitro 5-Lipoxygenase Assay (5-HETE). The conditions noted are these: RBL-1 cell-free supernatant, 10 μM arachidonic acid, 37° C. The class given is biochemical. How it is done:
The ability of a compound to reduce 5-HETE production by cell-free 5-lipoxygenase enzyme obtained from rat basophilic leukemia (RBL-1) cells was measured by a modified procedure of Cochran et al. [Biochem. Biophys. Res. Commun., 161, 1327 (1989)]. RBL-1 cell-free supernatants were prepared by a modification of the method of Jakschik et al., [Prostaglandins, 25, 767 (1983)]. Cells (1×10^9) were collected by centrifugation (22°) and washed at […] with 50 mM phosphate buffer at 5×10^7 cells/ml. Cells were lysed on ice for 45 seconds with a Teckmar sonic disrupter. The homogenate was centrifuged (4° C) for 25 minutes and the supernatant (5 μg protein/μl) was decanted and stored at -80° C. A 1% dimethylsulfoxide (DMSO) vehicle (DMSO in deionized water) was utilized at various concentrations of the test compound. Duplicate reactions were run in 35mM buffer in the presence of 5 μM ATP, 50 μM CaCl2 and 10 μM arachidonic acid at 37° C. The reaction was terminated with 10 μl 0.3 citrate buffer and diluted with BGGE buffer (0.01M phosphate, 0.1% bovine gamma globulin, pH 8.5) containing 114 μM BHT with ice bath cooling. 5-Hydroxyeicosatetraenoic acid (5-HETE) levels were quantitated by radioimmunoassay according to standard procedures.

For assay [5], the system named is cyclooxygenase metabolite (PGE2) formation in cultured 3T3 mouse fibroblasts (CCL92-3T3). The assay is described as follows: In Vitro Cyclooxygenase Assay (PGE2). The class given is cell-based. The conditions noted are these: Fibroblast, 24 hours; for IC50: radioimmunoassay. How it is done: The ability of a compound to reduce cyclooxygenase metabolite formation in cultured 3T3 mouse fibroblasts (CCL92-3T3) was measured by radioimmunoassay of prostaglandin E2 (PGE2) levels in the culture media. The 3T3 cells were maintained in complete Dulbecco's Modified Eagles Medium (DMEM) containing 10% calf serum, 2 mM L-glutamine and 5000 units/ml of penicillin/streptomycin. After seeding in 24 mm tissue culture dishes at […], the cells were cultured for 24 hours. Media was removed by aspiration and replaced with DMEM (1 ml/well, 4 wells/treatment) containing test compound, which was previously dissolved in ethanol, or vehicle at various concentrations. The cells were then incubated for 24 hours and PGE2 levels in the media were quantitated by radioimmunoassay according to established procedure (Lingren et al., FEBS Lett., 48, 22). The mean value from duplicate determinations was utilized to assess the % change from control values for each treatment group.

Assay [6] relates to phenyl-para-quinone induced writhing. The assay is described as follows: phenyl-para-benzoquinone writhing assay in mice (analgesia). The class given is in vivo. Conditions: at 20 mg/kg. From the text: The compounds of the present invention are also useful as analgesic agents due to their ability to alleviate pain in mammals. […] Exptl. Biol. Med., 95, 729 (1957)].
(In general: Writhing tests count abdominal constrictions after an irritant is injected.)

The structures appear in SMILES notation.

Regarding `CN(O)CCc1ccc2c(c1)C(=O)c1ccccc1CO2` [2-(6,11-Dihydro-11-oxodibenz[b,e]oxepin-2-yl)-N-hydroxy-N-methyl-ethylamine], the “PIPE 0.1M” value in assay [1] is reported as -70. Moreover, the “AAEE % Change” value in assay [2] is reported as -46%. The TPAEE percent change in assay [3] is reported as -50%. In addition, the IC50 (in general, the concentration needed to halve the response being measured) in assay [4] stood at 240 nM; in assay [5] it was 100 nM.

For the compound `CCN(O)CCc1ccc2c(c1)Cc1ccccc1CO2` [2-(6,11-Dihydrodibenz[b,e]oxepin-2-yl)-N-ethyl-N-hydroxyethylamine], in assay [2], the “AAEE % Change” value is -50%. Moreover, the TPAEE percent change in assay [3] is -84%. Further, half-maximal inhibition in assay [4] (IC50) required 280 nM.

Regarding `O=C1c2ccccc2COc2ccc(CCC(=O)N(O)C3CCCCC3)cc21` [3-(6,11-Dihydro-11-oxodibenz[b,e]oxepin-2-yl)-N-cyclohexyl-N-hydroxypropanamide], the “% Inhibition of Writhing” value in assay [6] was found to be 76%.

With `CN(O)C(=O)CCc1ccc2c(c1)C(=O)c1ccccc1CO2` [3-(6,11-Dihydro-11-oxodibenz[b,e]oxepin-2-yl)-N-hydroxy-N-methylpropanamide], the “PIPE 0.1M” value in assay [1] is recorded as -46. The “AAEE % Change” value in assay [2] is -63%. Moreover, the TPAEE percent change in assay [3] was -71%. The IC50 amounted to 50 nM in assay [4] and 780 nM in assay [5].

Turning to `CN(O)C(=O)CCc1ccc2c(c1)Cc1ccccc1CO2` [3-(6,11-Dihydro-dibenz[b,e]oxepin-2-yl)-N-hydroxy-N-methylpropanamide], the “AAEE % Change” value in assay [2] is recorded as -67%. Besides, the IC50 came out at 80 nM in assay [4] and 1000 nM in assay [5].

Take `C[C@]12CCC(=O)C=C1CC[C@@H]1[C@@H]2[C@@H](O)C[C@@]2(C)[C@H]1CC[C@]2(O)C(=O)CO` [Hydrocortisone, reference compound]: the “PIPE ED50” value in assay [1] is given as 0.46 M.

For `CC(C)Cc1ccc(C(C)C(=O)O)cc1` (centres unmarked) [Ibuprofen, reference compound], in assay [5], the IC50 came to 22 nM.

For the compound `O=C1c2ccccc2COc2ccc(CC(=O)N(O)C3CCCCC3)cc21` [N-Cyclohexyl-2-(6,11-dihydro-11-oxodibenz[b,e]oxepin-2-yl)-N-hydroxyacetamide], the “PIPE 0.1M” value in assay [1] is on record as -85. Moreover, in assay [2], the “AAEE % Change” value is -29%. For the same compound, the TPAEE percent change in assay [3] is reported as -52%. For the same compound, the “% Inhibition of Writhing” value in assay [6] worked out at 68%. The compound also came in with a half-inhibitory concentration (IC50) in assay [4] of 500 nM. Also, the inhibition at 1 µM in assay [5] (@1 μM, read-out: PGE2 % change) turned out to be 17%.

Regarding `CCN(CC)CCCC(C)Nc1c2ccc(Cl)cc2nc2ccc(OC)cc12` (centres unmarked) [Quinacrine, reference compound], in assay [1], the “PIPE ED50” value is reported as 0.1 M.

Source of the values: patent US5917057A, “N-hydroxy-dibenz[b,e]oxepinalkylamines, n-hydroxy-dibenz[b,e]oxepinalkanoic acid amides and related heterocyclic analogues” (Hoechst Marion Roussel, Inc., priority 1998, dated 1999).
